The source of these data is patent publication US7638525B2 (Janssen Pharmaceutica N.V., priority 2004, dated 2009).

Usually % inhibition stands for the relative decrease from the control value, in per cent.

This test concerns T47D human breast cancer cells. The test is described as follows: In vitro test: alkaline phosphatase assay in T47D human breast cancer cells. It counts as cell-based. Conditions: alkaline phosphatase luminescence after 24 h with compound, test concentration not given. As for the experimental part:
T47D human breast cancer cells are grown in RPMI medium without phenol red (Invitrogen) containing 10% (v/v) heat-inactivated fetal bovine serum (FBS; Hyclone), 1% (v/v) penicillin-streptomycin (Invitrogen), 1% (w/v) glutamine (Invitrogen), and […] (Sigma). Incubation conditions are 37° C. in a humidified 5% (v/v) carbon dioxide environment. For assay, the cells are plated in 96-well tissue culture plates at 10,000 cells per well in assay medium [RPMI medium without phenol red (Invitrogen) containing 5% (v/v) charcoal-treated FBS (Hyclone) and 1% (v/v) penicillin-streptomycin (Invitrogen)]. Two days later, the medium is decanted and the compounds are added in a final concentration of 0.1% (v/v) dimethyl sulfoxide in fresh assay medium. Twenty-four hours later, an alkaline phosphatase assay is performed using a SEAP kit (BD Biosciences Clontech, Palo Alto, Calif.). Briefly, the medium is decanted and the cells are fixed for 30 minutes at room temperature with 5% (v/v) formalin (Sigma). The cells are washed once with room temperature Hank's buffered saline solution (Invitrogen). Equal volumes (0.05 mL) of 1× Dilution Buffer, Assay Buffer and 1:20 substrate/enhancer mixture are added. After 1-hour incubation at room temperature in the dark, the lysate is transferred to a white 96-well plate (Dynex) and luminescence is read using a LuminoSkan Ascent (Thermo Electron, Woburn, Mass.).
Regarding `O=C(c1ccc(Cl)cc1)c1cc(-c2ccncc2)c(N2CCC3(CC2)OCCO3)s1` [Example 3, (4-Chloro-phenyl)-[5-(1 4-dioxa-8-aza-spiro[4.5]-dec-8-yl)-4-pyridin-4-yl-thiophen-2-yl]-methanone], the “% inhibition” value turned out to be 27%.
To `O=C1CCN(c2sc(C(=O)c3cccc([N+](=O)[O-])c3)cc2-c2ccncc2)CC1` [Example 19] belongs 29%; to `O=C1CCN(c2sc(C(=O)c3cc(C(F)(F)F)cc(C(F)(F)F)c3)cc2-c2ccncc2)CC1` [Example 14, 1-[5-(3,5-Bis-trifluoromethyl-benzoyl)-3-pyridin-4-yl-thiophen-2-yl]-piperidin-4-one], 57%; to `O=C(c1cccc(Br)c1)c1cc(-c2ccncc2)c(N2CCC3(CC2)OCCO3)s1` [Example 10, (3-Bromo-phenyl)-[5-(1,4-dioxa-8-aza-spiro[4.5]-dec-8-yl)-4-pyridin-4-yl-thiophen-2-yl]-methanone], 42%.
Regarding `O=C(c1ccc([N+](=O)[O-])cc1)c1cc(-c2ccncc2)c(N2CCC3(CC2)OCCO3)s1` [Example 4, [5-(1 4-Dioxa-8-aza-spiro[4.5]-dec-8-yl)-4-pyridin-4-yl-thiophen-2-yl]-(4-nitro-phenyl)-methanone], the “% inhibition” value came to 0%.
Regarding `O=C1CCN(c2sc(C(=O)c3ccc([N+](=O)[O-])cc3)cc2-c2ccncc2)CC1` [Example 17, 1-[5-(4-Nitro-benzoyl)-3-pyridin-4-yl-thiophen-2-yl]-piperidi n-4-one], the “% inhibition” value came to 30%.
To `COc1ccccc1C(=O)c1cc(-c2ccncc2)c(N2CCC3(CC2)OCCO3)s1` [Example 9, [5-(1,4-Dioxa-8-aza-spiro[4.5]-dec-8-yl)-4-pyridin-4-yl-thiophen-2-yl]-(2-methoxy-phenyl)-methanone] belongs 30%; to `O=C(c1cc(C(F)(F)F)cc(C(F)(F)F)c1)c1cc(-c2ccncc2)c(N2CCC3(CC2)OCCO3)s1` [Example 8, (3,5-Bis-trifluoromethyl-phenyl)-[5-(1 4-dioxa-8-aza-spiro[4.5]-dec-8-yl)-4-pyridin-4-yl-thiophen-2-yl]-methanone], 0%.
As to `CCC(=O)c1cc(-c2ccncc2)c(N2CCC(=O)CC2)s1` [Example 18, 1-(5-Propionyl-3-pyridin-4-yl-thiophen-2-yl)-piperidin-4-one], the “% inhibition” value was determined as 26%.
For the compound `O=C1CCN(c2sc(C(=O)c3cccc(Br)c3)cc2-c2ccncc2)CC1` [Example 20, 1-[5-(3-Bromo-benzoyl)-3-pyridin-4-yl-thiophen-2-yl]-piperidin-4-one], the “% inhibition” value was found to be 23%.
As for `O=C(c1ccccc1)c1cc(-c2ccncc2)c(N2CCC3(CC2)OCCO3)s1` [Example 6, [5-(1,4-Dioxa-8-aza-spiro[4.5]-dec-8-yl)-4-pyridin-4-yl-thiophen-2-yl]-phenyl-methanone], the figure is 34%; as for `O=C1CCN(c2sc(C(=O)c3ccccc3)cc2-c2ccncc2)CC1` [Example 11, 1-(5-Benzoyl-3-pyridin-4-yl-thiophen-2-yl)-piperidin-4-one], 35%.
As for `CCC(=O)c1cc(-c2ccncc2)c(N2CCC3(CC2)OCCO3)s1` [Example 5, 1-[5-(1,4-Dioxa-8-aza-spiro[4.5]-dec-8-yl)-4-pyridin-4-yl-thiophen-2-yl]-1-one], the figure is 0%; as for `O=C(c1ccc(Cl)c(Cl)c1)c1cc(-c2ccncc2)c(N2CCC3(CC2)OCCO3)s1` [Example 1, (3,4-Dichloro-phenyl)-[5-(1,4-dioxa-8-aza-spiro[4.5]-dec-8-yl)-4-pyridin-4-yl-thiophen-2-yl]-methanon], 6%.
As for `COc1cccc(C(=O)c2cc(-c3ccncc3)c(N3CCC4(CC3)OCCO4)s2)c1` [Example 7, [5-(1,4-Dioxa-8-aza-spiro[4.5]-dec-8-yl)-4-pyridin-4-yl-thiophen-2-yl-](3-methoxy-phenyl)-methanone], the figure is 42%.
Turning to `COc1cccc(C(=O)c2cc(-c3ccncc3)c(N3CCC(=O)CC3)s2)c1` [Example 12, 1-[5-(3-Methoxy-benzoyl)-3-pyridin-4-yl-thiophen-2-yl]-piperidin-4-one], the “% inhibition” value worked out at 24%.
As to `COc1ccccc1C(=O)c1cc(-c2ccncc2)c(N2CCC(=O)CC2)s1` [Example 15, 1-[5-(2-Methoxy-benzoyl)-3-pyridin-4-yl-thiophen-2-yl]-piperidin-4-one], the “% inhibition” value stood at 39%.
To `O=C1CCN(c2sc(C(=O)c3ccc(Cl)cc3)cc2-c2ccncc2)CC1` [Example 16, 1-[5-(4-Chloro-benzoyl)-3-pyridin-4-yl-thiophen-2-yl]-piperidin-4-one] belongs 30%.
To `O=C(c1ccc(F)cc1)c1cc(-c2ccncc2)c(N2CCC3(CC2)OCCO3)s1` [Example 2, [5-(1,4-Dioxa-8-aza-spiro[4.5]-dec-8-yl)-4-pyridin-4-yl-thiophen-2-yl]-(4-fluoro-phenyl)-methanone] belongs 15%; to `O=C1CCN(c2sc(C(=O)c3ccc(F)cc3)cc2-c2ccncc2)CC1` [Example 13, 1-[5-(4-Fluoro-benzoyl)-3-pyridin-4-yl-thiophen-2-yl]-piperidin-4-one], 46%.
